Data from ChEMBL document CHEMBL1201862, “PubChem BioAssay data set” (2004).
Values belong to the compound of their own block, whether it stands above or below them. Active and inactive are the calls of the source.

Legend:
[1] = target: Glyceraldehyde-3-phosphate dehydrogenase (Homo sapiens, UniProt P04406)
[2] = cytotoxicity in HEK-293T cells, dose response, cytotoxicity control for BCR NF-kB inhibitor project, luminescence, B-cell screen hits (AID 489021); type: functional, cell-based;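 further: HEK-293T cells carrying an NF-kB luciferase reporter; cells exposed to compound for about 14 hours before viability readout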
[3] = inhibitors of HIV Env-driven cell fusion, dose response, cherry-pick (AID 652057); type: functional, cell-based
[4] = off-target signal loss in HeLa-CEM21 co-culture – HeLa F-luc CTL cells, cherry-picked, counter-screen for HIV-1 Env fusion inhibitor project, dose response (AID 652040); type: functional, cell-based;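 further: potency for signal decrease marking cytotoxic or nonspecific inhibition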
[5] = target: T1, Calpain-2 catalytic subunit (Sus scrofa, UniProt P43367); test: pig calpain II inhibitor potency, dose response, biochemical, fluorogenic peptide substrate (AID 1420); type: functional
T1 sequence (P43367 whole entry): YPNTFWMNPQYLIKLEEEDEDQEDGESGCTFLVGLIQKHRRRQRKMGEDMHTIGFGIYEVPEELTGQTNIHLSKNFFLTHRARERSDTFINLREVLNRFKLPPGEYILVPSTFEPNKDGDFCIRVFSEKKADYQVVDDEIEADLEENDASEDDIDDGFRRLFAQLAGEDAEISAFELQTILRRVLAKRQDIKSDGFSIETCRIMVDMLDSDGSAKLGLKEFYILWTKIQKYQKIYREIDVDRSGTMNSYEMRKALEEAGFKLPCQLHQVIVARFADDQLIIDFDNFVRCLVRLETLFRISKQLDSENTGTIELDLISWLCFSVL

[6] = inhibitors of clade B AD8 Env fusion, dose response, cell-based, cherry-pick (AID 652062); type: functional;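 further: luciferase signal from cell-cell fusion driven by HIV-1 clade B AD8 Env; potency is for inhibitors of fusion seen as a drop in luminescence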
[7] = ZM109 Env clade C HIV-1 fusion inhibitors, dose response, HeLa effector, CEM target cells, luciferase, cherry-pick (AID 652058); type: functional, cell-based
BJ [8] = test: cells; type: functional, cell-based; conditions: Homo sapiens
BJ [9] = test: cytotoxicity toward BJ-TERT-LT-ST fibroblasts, dose response, cell-based, RAS-independent, luminescence (AID 1935); type: functional; conditions: Homo sapiens;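 further: BJ fibroblasts immortalized with TERT plus LT and ST oncogenes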
[10] = cytotoxicity toward DRD oncogenic fibroblasts, dose response, cell-based, non-viral oncogenic, luminescence (AID 1934); type: functional; conditions: Homo sapiens
[11] = target: T2, High affinity choline transporter 1 (Homo sapiens, UniProt Q9GZV3); test: CHT inhibitors, dose response, cell-based, 5-point CRC, membrane potential dye (AID 504840); type: functional
T2 sequence (Q9GZV3 whole entry): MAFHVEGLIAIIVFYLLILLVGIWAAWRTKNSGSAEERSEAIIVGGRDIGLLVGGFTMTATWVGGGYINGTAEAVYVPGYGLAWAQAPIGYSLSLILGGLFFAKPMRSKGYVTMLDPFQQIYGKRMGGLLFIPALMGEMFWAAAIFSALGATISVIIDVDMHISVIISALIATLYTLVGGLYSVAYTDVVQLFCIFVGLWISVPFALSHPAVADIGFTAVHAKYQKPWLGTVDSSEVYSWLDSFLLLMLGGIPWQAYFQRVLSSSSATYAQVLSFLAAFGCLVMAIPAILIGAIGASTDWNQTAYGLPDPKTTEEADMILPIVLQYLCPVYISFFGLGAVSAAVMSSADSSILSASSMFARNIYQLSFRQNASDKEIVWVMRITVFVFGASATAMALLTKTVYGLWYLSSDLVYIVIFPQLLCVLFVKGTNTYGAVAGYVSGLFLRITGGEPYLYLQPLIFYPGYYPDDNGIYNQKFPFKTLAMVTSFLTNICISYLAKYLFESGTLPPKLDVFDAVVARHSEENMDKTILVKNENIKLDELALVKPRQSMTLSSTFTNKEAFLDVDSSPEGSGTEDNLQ

BJ [12] = test: cytotoxicity toward BJ-TERT fibroblasts, dose response, cell-based, RAS-independent, luminescence (AID 1933); type: functional; conditions: Homo sapiens
[13] = target: T3, Heat shock factor protein 1 (Mus musculus, UniProt P38532); test: HSF1 potentiators in luciferase reporter cells, confirmation, cell-based, NIH3T3, luminescence, dose retest (AID 435004); type: functional;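 further: stress induced by proteasome inhibitor MG132 added 30 min after compound; luciferase reporter driven by HSF1 response element in NIH3T3 cells; actives raise luminescence as potentiators of the MG132 stress response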
T3 sequence (P38532 whole entry): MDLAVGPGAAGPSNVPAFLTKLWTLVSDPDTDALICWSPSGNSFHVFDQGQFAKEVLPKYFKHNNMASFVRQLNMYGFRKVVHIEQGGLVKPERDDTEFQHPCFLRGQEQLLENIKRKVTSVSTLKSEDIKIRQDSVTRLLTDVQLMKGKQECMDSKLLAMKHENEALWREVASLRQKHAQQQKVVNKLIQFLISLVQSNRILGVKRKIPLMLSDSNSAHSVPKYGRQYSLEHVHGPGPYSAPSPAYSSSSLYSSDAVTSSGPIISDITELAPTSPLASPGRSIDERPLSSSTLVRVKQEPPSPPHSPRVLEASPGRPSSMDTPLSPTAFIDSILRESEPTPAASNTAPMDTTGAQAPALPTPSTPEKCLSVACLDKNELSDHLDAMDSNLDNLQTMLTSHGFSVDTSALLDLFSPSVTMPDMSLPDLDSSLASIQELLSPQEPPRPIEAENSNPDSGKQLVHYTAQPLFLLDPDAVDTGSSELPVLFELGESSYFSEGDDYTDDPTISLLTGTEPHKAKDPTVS

[14] = target: T4, Corticotropin-releasing factor receptor 2/Corticotropin-releasing factor-binding protein (Homo sapiens, UniProt P24387+Q13324); test: activators of CRF receptor 2 with binding protein – uHTS hits, confirmation (AID 602473); type: functional; conditions: read-out: EC50_Mean
T4 sequence (Q13324 whole entry): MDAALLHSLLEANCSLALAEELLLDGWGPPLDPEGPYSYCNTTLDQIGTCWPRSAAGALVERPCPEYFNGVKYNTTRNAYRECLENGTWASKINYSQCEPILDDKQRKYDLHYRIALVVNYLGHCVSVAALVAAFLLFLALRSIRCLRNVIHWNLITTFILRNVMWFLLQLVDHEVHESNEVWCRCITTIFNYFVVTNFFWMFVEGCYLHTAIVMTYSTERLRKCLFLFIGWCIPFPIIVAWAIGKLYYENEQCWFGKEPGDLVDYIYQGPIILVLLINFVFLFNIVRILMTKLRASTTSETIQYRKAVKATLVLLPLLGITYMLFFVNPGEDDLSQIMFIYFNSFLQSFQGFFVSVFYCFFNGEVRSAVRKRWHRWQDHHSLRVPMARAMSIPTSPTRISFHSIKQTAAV
T4 sequence (P24387 whole entry): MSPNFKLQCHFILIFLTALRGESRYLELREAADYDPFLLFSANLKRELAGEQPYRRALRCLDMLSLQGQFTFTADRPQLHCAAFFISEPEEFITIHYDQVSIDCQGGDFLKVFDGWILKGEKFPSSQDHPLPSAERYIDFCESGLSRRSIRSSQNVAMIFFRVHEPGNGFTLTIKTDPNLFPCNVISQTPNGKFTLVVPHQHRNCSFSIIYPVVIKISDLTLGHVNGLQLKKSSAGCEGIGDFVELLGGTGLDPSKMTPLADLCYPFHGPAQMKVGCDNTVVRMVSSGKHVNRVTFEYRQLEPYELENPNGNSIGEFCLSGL

[15] = target: T5, Ubiquitin-conjugating enzyme E2 N (Homo sapiens, UniProt P61088); type: functional;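 further: Dose-response confirmation in a TR-FRET assay detecting UBC13-driven polyubiquitin chain formation, inhibition measured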
T5 sequence (P61088 whole entry): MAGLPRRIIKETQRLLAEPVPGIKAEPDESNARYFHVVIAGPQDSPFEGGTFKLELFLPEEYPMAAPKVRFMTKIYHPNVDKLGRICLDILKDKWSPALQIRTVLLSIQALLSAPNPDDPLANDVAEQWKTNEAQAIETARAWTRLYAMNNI

H9c2 = test: cells; type: functional, cell-based; conditions: Rattus norvegicus, H9c2, Myocardium;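 further: confirmatory concentration-response retest of ultra-high-throughput screening hits for modulation of myocardial damage; cell death induced by hydrogen peroxide oxidative stress; compound pretreatment for 60 min then peroxide exposure for 2 h; potency is for protecting the cells against peroxide damage rather than for killing them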
P388 = test: cells; type: functional; conditions: Mus musculus
P388/ADR = test: cells; type: functional; conditions: Mus musculus
SN12K1 = test: cells; type: functional; conditions: Homo sapiens
[16] = P. falciparum Dd2 growth inhibitors, dose response, SYBR Green, cherry-picked samples (AID 1159567); type: functional, cell-based
INS1 = test: beta cell apoptosis inhibitors, cytokine rescue, dose response, luminescence, retest (AID 449756); type: functional, cell-based; conditions: Rattus norvegicus;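 further: cell death triggered by IL-1 beta plus TNF-alpha plus IFN-gamma mixture; protective hits raise ATP signal compared with cytokine alone wells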

Glyceraldehyde-3-phosphate dehydrogenase, sequence (P04406 whole entry): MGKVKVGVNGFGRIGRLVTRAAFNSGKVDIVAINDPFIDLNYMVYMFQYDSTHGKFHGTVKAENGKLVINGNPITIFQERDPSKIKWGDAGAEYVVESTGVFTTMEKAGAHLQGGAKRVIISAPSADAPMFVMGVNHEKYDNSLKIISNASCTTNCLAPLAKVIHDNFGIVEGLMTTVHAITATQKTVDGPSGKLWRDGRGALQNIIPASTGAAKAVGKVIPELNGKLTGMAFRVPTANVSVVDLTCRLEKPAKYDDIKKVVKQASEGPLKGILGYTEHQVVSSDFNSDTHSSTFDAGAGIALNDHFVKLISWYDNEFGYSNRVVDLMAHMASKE

IC50 [1]: > 50 µM (inconclusive)
SMILES: Cc1cccc(N2C(=O)C(Cl)=C(N3CCN(c4ncccn4)CC3)C2=O)c1

SMILES: O=C(CCCN1C(=O)/C(=C/c2ccccc2Cl)SC1=S)NNC(=O)c1ccncc1
IC50 [2]: > 80 µM (inactive)

SMILES: Nc1c(Cl)cc2c(c1Oc1ccccc1)C(=O)c1ccccc1C2=O
AC50 [3]: 11.2 µM (active)
AC50 [4]: 11.2 µM (active)
IC50 [5]: 2.46 µM (not active)
AC50 [6]: 16.4 µM (active)
AC50 [7]: 14.3 µM (active)

SMILES: Cc1nn(C(C)(C)C)c(OC(=O)c2ccc(Br)o2)c1Sc1ccccc1
IC50 [2]: > 80 µM (inactive)

SMILES: CC(C)Nc1nc(Cl)nc(N(C#N)CN2C(=O)c3ccccc3C2=O)n1
EC50 (BJ [8]): 16.2 µM (active)
EC50 (BJ [9]): > 150 µM (inconclusive)
EC50 [10]: 17.9 µM (active)
IC50 [11]: 1.58 µM (active)
EC50 (BJ [12]): 10.1 µM (active)
EC50 [13]: 27.9 µM (active)

SMILES: CS(=O)(=O)N(Cc1ccc(Cl)cc1)c1ccc(C(=O)NCCSc2ccccn2)cc1
EC50 [14]: > 53 µM (inactive)
AC50 [3]: 5.5 µM (active)
AC50 [4]: 18.6 µM (active)
AC50 [6]: 6.23 µM (active)
AC50 [7]: 52.2 µM (active)

IC50 [1]: > 50 µM (inconclusive)
SMILES: C[C@@H]1CN(C2=C(Cl)C(=O)N(c3cccc(C(F)(F)F)c3)C2=O)CCN1

IC50 [15]: > 20 µM (inactive)
SMILES: O=C(NCC1CCN(Cc2ccc(F)cc2)CC1)C1CCCN(c2ncnc3c2nc2n3CCCCC2)C1 (stereo unspecified)

SMILES: COc1ccc(NC(=O)c2cc(-c3ccccn3)nc3ccccc23)cc1S(=O)(=O)N(C)C
IC50 [2]: > 80 µM (inactive)
IC50 (H9c2): > 79 µM (inactive)

SMILES: C[C@@]12C(=O)N(Cc3ccc(F)cc3)CC(=O)N1[C@H]1c3cc(Cl)ccc3OC[C@@H]1[C@@H]2c1ccccc1
AC50 [3]: 5.93 µM (active)
AC50 [4]: 7.95 µM (active)
AC50 [7]: 8.91 µM (active)

SMILES: COCCn1nnnc1CN(CCc1ccccc1)Cc1cc2cc(OC)ccc2nc1O
AC50 [3]: 5.69 µM (active)
IC50 (H9c2): 16.1 µM (active)
AC50 [4]: 26.9 µM (active)
AC50 [6]: 1.48 µM (active)
AC50 [7]: 5.58 µM (active)

SMILES: CN(C)CCNC(=O)c1cccc2nc(-c3ccccc3)oc12
GI50 (P388): 4.34 µM (inactive)
GI50 (P388/ADR): 8.63 µM (inactive)
GI50 (SN12K1): 22.8 µM (inactive)

SMILES: COc1ccc(/C=N\NC(=O)c2c(C)nc3ccc(Br)cn23)cc1
EC50 (BJ [8]): 2.71 µM (active)
EC50 (BJ [9]): 2.67 µM (inconclusive)
EC50 [10]: 2.9 µM (inconclusive)
IC50 (H9c2): 12.1 µM (active)
EC50 (BJ [12]): 3.13 µM (active)

GI50 (P388): 5.26 µM (inactive)
GI50 (P388/ADR): 3.69 µM (inactive)
SMILES: Cc1ccc(C(=O)Nc2ncn(C3CC(O)C(CO)O3)c(=O)n2)cc1 (stereo unspecified)
GI50 (SN12K1): > 100 µM (inactive)

SMILES: CC1(C)CC2(CC(C)(C)N1O)NC(=O)OC2=O
GI50 (P388): 60.7 µM (inactive)
GI50 (P388/ADR): 4.47 µM (inactive)
GI50 (SN12K1): > 100 µM (inactive)

SMILES: CC[C@@]1(O)C[C@H](OC2CC(N(C)C)C(OC3CC(O)C(OC4CC(O)C(O)C(C)O4)C(C)O3)C(C)O2)c2c(cc3c(c2O)C(=O)c2c(O)ccc(O)c2C3=O)[C@H]1C(=O)OC (stereo partly specified)
GI50 (P388): 0.00693 µM (active)
GI50 (P388/ADR): 0.713 µM (active)
GI50 (SN12K1): 0.00695 µM (active)

SMILES: CC(=O)OC1CC2(O)C(CCC3(C)C(c4ccc(=O)oc4)CCC32O)C2(C)CCC(O)C=C12 (stereo unspecified)
GI50 (P388): 4.37 µM (inactive)
GI50 (P388/ADR): 7.26 µM (inactive)
GI50 (SN12K1): 0.0196 µM (active)

SMILES: COc1ccccc1/C=N/N1C(=O)C(CC(=O)Nc2ccc([N+](=O)[O-])cc2OC)S/C1=N\c1cccc(C)c1C (stereo unspecified)
EC50 (BJ [8]): 22.9 µM (active)
EC50 (BJ [9]): 14.9 µM (inconclusive)
EC50 [10]: 4.24 µM (active)
EC50 (BJ [12]): 10.6 µM (active)

SMILES: CC(C)(O)C#Cc1cccc(-c2nc(C(=O)N[C@@H]3CCN(Cc4ccccc4)C3)cc3c2[C@H](CCO)N([S+]([O-])C(C)(C)C)C3)c1 (stereo partly specified)
AC50 [16]: 5.86 µM (active)

SMILES: N=c1c2c(n(Cc3ccc(Cl)cc3Cl)c3c1CCC3)CCCC2
IC50 [2]: > 80 µM (inactive)
AC50 (INS1): 3.58 µM (active)

SMILES: CN(CO)c1nc(N(C)CO)nc(N(C)CO)n1 [TRIMELAMOL]
GI50 (P388): 6.15 µM (inactive)
GI50 (P388/ADR): 16.3 µM (inactive)
GI50 (SN12K1): 4.98 µM (inactive)
